Assay results taken from ChEMBL document CHEMBL1125953, “Probing the inhibition of leukotriene A4 hydrolase based on its aminopeptidase activity” (Bioorg Med Chem Lett, 1991).
Blank lines part the entries; values can stand above or below the molecule they belong to.

Tests used:
[1] = Ratio of catalytic constant to that of Michaelis-Menten constant for LTA4 hydrolase-catalyzed hydrolysis was determined
[2] = molecular target: T1, Leukotriene A-4 hydrolase (Homo sapiens, UniProt P09960); test: Inhibitory activity against Leukotriene A4 hydrolase from human leukocytes
T1 sequence (P09960 whole entry): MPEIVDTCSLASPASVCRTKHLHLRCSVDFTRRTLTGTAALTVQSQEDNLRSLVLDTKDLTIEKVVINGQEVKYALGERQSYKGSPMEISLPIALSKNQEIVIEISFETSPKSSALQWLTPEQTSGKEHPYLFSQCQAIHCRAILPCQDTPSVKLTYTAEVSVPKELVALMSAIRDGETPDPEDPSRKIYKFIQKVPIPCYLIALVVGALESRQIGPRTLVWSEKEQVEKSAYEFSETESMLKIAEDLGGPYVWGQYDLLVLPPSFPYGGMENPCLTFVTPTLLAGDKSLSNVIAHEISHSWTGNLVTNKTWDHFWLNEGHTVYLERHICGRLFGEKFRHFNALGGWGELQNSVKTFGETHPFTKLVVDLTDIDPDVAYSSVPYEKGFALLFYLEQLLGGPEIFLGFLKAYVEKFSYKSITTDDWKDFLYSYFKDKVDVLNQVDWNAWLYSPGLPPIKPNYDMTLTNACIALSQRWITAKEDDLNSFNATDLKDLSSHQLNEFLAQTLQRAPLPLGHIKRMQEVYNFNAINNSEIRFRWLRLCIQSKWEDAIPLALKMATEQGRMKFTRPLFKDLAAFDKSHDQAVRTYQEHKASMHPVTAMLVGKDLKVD

[3] = molecular target: T1, Leukotriene A-4 hydrolase; test: Compound was tested for inhibitory activity against Leukotriene A4 hydrolase from human leukocytes; NI means no inhibition at 1 mM
[4] = substrate: CC(C)C[C@H](N)C(=O)Nc1ccc([N+](=O)[O-])cc1; test: (§1) Michaelis-Menten constant of compound for Leukotriene A4 hydrolase catalyzed hydrolysis was determined
[5] = substrate: CCCCC/C=C\C/C=C\C=C\C=C\[C@@H]1O[C@H]1CCCC(=O)O; test: as §1
[6] = substrate: C[C@@H](N)C(=O)Nc1ccc([N+](=O)[O-])cc1; test: as §1
[7] = substrate: NC(N)=NCCC[C@@H](N)C(=O)Nc1ccc([N+](=O)[O-])cc1; test: as §1
[8] = substrate: NCCCC[C@@H](N)C(=O)Nc1ccc([N+](=O)[O-])cc1; test: as §1
[9] = substrate: O=C(Nc1ccc([N+](=O)[O-])cc1)[C@@H]1CCCN1; test: as §1
[10] = substrate: C[C@@H](N)C(=O)Nc1ccc([N+](=O)[O-])cc1; test: (§2) Maximum velocity of amino acid amides was tested as substrates for LTA4 hydrolase-catalyzed hydrolysis
[11] = substrate: NCCCC[C@@H](N)C(=O)Nc1ccc([N+](=O)[O-])cc1; test: as §2
[12] = substrate: C[C@H](N)C(=O)Nc1ccc([N+](=O)[O-])cc1; test: Maximum velocity of amino acid amides was tested as substrates for Leukotriene A4 hydrolase
[13] = substrate: CC(C)C[C@H](N)C(=O)Nc1ccc([N+](=O)[O-])cc1; test: (§3) Maximum velocity of amino acid amides was tested as substrates for Leukotriene A4 hydrolase catalyzed hydrolysis
[14] = substrate: CCCCC/C=C\C/C=C\C=C\C=C\[C@@H]1O[C@H]1CCCC(=O)O; test: as §3
[15] = substrate: NC(N)=NCCC[C@@H](N)C(=O)Nc1ccc([N+](=O)[O-])cc1; test: as §3
[16] = substrate: O=C(Nc1ccc([N+](=O)[O-])cc1)[C@@H]1CCCN1; test: as §3

Molecule: CCCCC/C=C\C\C=C/C=C/C=C/[C@@H]1O[C@H]1CCCC(=O)O
k cat/Km [1]: 90000 M⁻¹ s⁻¹

Molecule: COC(=O)C(S)[C@@H](N)Cc1ccccc1 (stereo partly specified)
IC50 [2]: ~250 µM

Molecule: NC(Cc1ccccc1)P(=O)(O)NCC(=O)O (stereo unspecified)
IC50 [2]: ~200 µM

Molecule: COC(=O)C(S)[C@H](N)Cc1ccccc1 (stereo partly specified)
IC50 [2]: > 250 µM

Molecule: N[C@H](Cc1ccccc1)[C@H](O)C(=O)O
IC50 [3]: No inhibition

Molecule: CCOC(=O)CC(F)(F)C(=O)/C=C/c1ccccc1
IC50 [2]: > 5000 µM

Molecule: C[C@H](CS)C(=O)N1CCC[C@H]1C(=O)O [CAPTOPRIL]
IC50 [2]: 0.07 µM

Molecule: N[C@@H](Cc1ccccc1)[C@H](O)C(=O)O
IC50 [2]: > 1000 µM

B1: Leukotriene A-4 hydrolase (Homo sapiens), P09960 (protein)
chain: T1 sequence (P09960 whole entry)
Km [4]: 300 µM
Km [5]: 7.6 µM
Km [6]: 500 µM
Km [7]: 200 µM
Km [8]: 100 µM
Km [9]: 100 µM
Vmax (nM min-1 mg-1) [10]: 530
Vmax (nM min-1 mg-1) [11]: 30
Vmax (nM min-1 mg-1) [12]: 0
Vmax (nM min-1 mg-1) [13]: 130
Vmax (nM min-1 mg-1) [14]: 572
Vmax (nM min-1 mg-1) [15]: 140
Vmax (nM min-1 mg-1) [16]: 130

Continued, values first:

IC50 [2]: ~80 µM
Molecule: N[C@@H](Cc1ccccc1)[C@H](O)C(=O)NCCC(=O)O

IC50 [2]: ~100 µM
Molecule: N[C@H](Cc1ccccc1)[C@H](O)C(=O)NCCC(=O)O

k cat/Km [1]: 1200 M⁻¹ s⁻¹
Molecule: C[C@@H](N)C(=O)Nc1ccc([N+](=O)[O-])cc1

k cat/Km [1]: 500 M⁻¹ s⁻¹
Molecule: CC(C)CC(N)C(=O)Nc1ccc([N+](=O)[O-])cc1 (single isomer, unassigned)

k cat/Km [1]: 1500 M⁻¹ s⁻¹
Molecule: O=C(Nc1ccc([N+](=O)[O-])cc1)[C@@H]1CCCN1

IC50 [2]: > 500 µM
Molecule: COC(=O)[C@H](O)[C@@H](N)Cc1ccccc1

k cat/Km [1]: 750 M⁻¹ s⁻¹
Molecule: NC(N)=NCCC[C@@H](N)C(=O)Nc1ccc([N+](=O)[O-])cc1

k cat/Km [1]: 350 M⁻¹ s⁻¹
Molecule: NCCCC[C@@H](N)C(=O)Nc1ccc([N+](=O)[O-])cc1

IC50 [3]: No inhibition
Molecule: COC(=O)[C@@H](O)[C@H](N)Cc1ccccc1

IC50 [3]: No inhibition
Molecule: COC(=O)[C@H](O)[C@H](N)Cc1ccccc1
